Measurements: PubChem BioAssay (NCI)
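A five-concentration, 48-hour dose response in 96-well plates underlies each endpoint, interpolated linearly between surrounding concentrations. TGI marks complete inhibition of growth.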

What was measured:
Assay in all cases: inhibition of tumour cell growth, NCI panel, 48 h
[1] = test system: SNB-78 CNS
[2] = test system: KM20L2 colon
[3] = test system: DMS 273 small cell lung
[4] = test system: XF 498 CNS
[5] = test system: DMS 114 small cell lung
[6] = test system: RXF-631 renal
[7] = test system: DLD-1 colon
[8] = test system: HOP-18 NSCLC
[9] = test system: M19-MEL melanoma
[10] = test system: LXFL 529 NSCLC

Row | Compound | TGI [1] [µM] | TGI [2] [µM] | TGI [3] [µM] | TGI [4] [µM] | TGI [5] [µM] | TGI [6] [µM] | TGI [7] [µM] | TGI [8] [µM] | TGI [9] [µM] | TGI [10] [µM]
1 | COc1cc2c(cc1OC)C1(c3ccccc3)ON=C(c3ccccc3)N1CS2 (configuration not stated) | > 100 | > 100 | > 100 | > 100 | > 100 | > 100 | > 100 | > 100 | > 100 | > 100
2 | CSC1CC2C(CC1(C)SC)C2(C)C (configuration not stated) | > 100 | – | > 100 | 50.8 | – | – | > 100 | – | > 100 | > 100
3 | Cc1ccc(C(O)/C(=N/N)c2nc3ccc([N+](=O)[O-])cc3[nH]c2=O)cc1 (configuration not stated) | > 100 | > 100 | > 100 | > 100 | > 100 | – | > 100 | – | > 100 | > 100
4 | CCN1C(=O)C(N=[N+]=[N-])(c2ccccc2)C(=O)c2ccccc21 (configuration not stated) | > 100 | > 100 | > 100 | 33 | > 100 | – | > 100 | > 100 | > 100 | > 100
5 | CC(=O)O[C@]12CCCCC1C1(O)C(O)CCCC[C@H]12 (some centres not stated) | > 100 | > 100 | > 100 | – | > 100 | – | – | > 100 | > 100 | > 100
6 | CCOc1ccc(N=Nc2c(-c3ccccc3)nn(C(=O)CC(=O)Nc3cccc(C)c3)c2-c2ccccc2)cc1 | > 100 | > 100 | > 100 | > 100 | > 100 | > 100 | > 100 | > 100 | – | > 100
7 | COC(=O)C1CCC[C@H]2C(CO)=C(C)C(=O)[C@@H]12 (some centres not stated) | > 100 | > 100 | > 100 | > 100 | > 100 | – | > 100 | > 100 | – | > 100
